# Columns and labels:
# GLP-1R [1] = target: T1, GLP-1R (Homo sapiens, UniProt P43220); test: cAMP method (HTRF cAMP detection kit), HEK293/pGM-CREB-L-Luc/GLP-1 pool; assay type: cell-based; conditions: read-out: EC50 (pM) for each receptor GLP-1R
# T1 construct: expressed in transfected cells
# Experimental: (§1) 2. Insulinotropic analogues can bind to target receptors on the cell membrane, activate the receptors, and induce release. The activity of the test substance can be determined using the HTRF method with a cAMP detection kit. Therefore, the cAMP method can be used to detect the target peptide derivatives (or polypeptide derivatives, i.e., TG1-TG86) prepared in Example 1 and Example 2. […] The test cell line was selected, treated with cAMP-specific trypsin for digestion. 3 mL of serum-free DMEM culture medium was added, and the cells were pipetted, resuspended, and counted. 5 µL of IBMX (prepared with serum-free DMEM medium, 0.5 mM) and test cells (5 µL/7500 cells/well) were added in a 384-well plate sequentially. The plate was incubated at 37°C under 5% CO2 for 30 min, followed by the addition of cAMP-d2 (5 µL, 1x) and Anti-cAMP-Cryptate (5 µL, 1x). The mixture was kept at room temperature for 1 h, after which the HTRF value was measured using a chemiluminescent microplate reader, and the determination result was recorded. […] Table 4: EC50 values for target peptide derivatives
# GLP-1R [2] = target: T1, GLP-1R; test: CreLuc method (CRE-luciferase reporter), HEK293/pGM-CREB-L-Luc/GLP-1R pool; assay type: cell-based; conditions: 6 h incubation, read-out: EC50 (pM) for each receptor GLP-1R
# Method in brief: (§2)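 Stable HEK293 pools co-expressing each receptor with a CRE-luciferase reporter were plated at 20,000 cells/well in freestyle medium and treated with compound dilution series for 6 h at 37 °C. Luminescence was read with ONE-GLO to derive EC50.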
# GIPR [3] = target: T2, GIPR (Homo sapiens, UniProt P48546); test: cAMP method (HTRF cAMP detection kit), HEK293/pGM-CREB-L-Luc/GIP pool; assay type: cell-based; conditions: read-out: EC50 (pM) for each receptor GIPR
# T2 construct: expressed in transfected cells
# T2 sequence (P48546 22-466): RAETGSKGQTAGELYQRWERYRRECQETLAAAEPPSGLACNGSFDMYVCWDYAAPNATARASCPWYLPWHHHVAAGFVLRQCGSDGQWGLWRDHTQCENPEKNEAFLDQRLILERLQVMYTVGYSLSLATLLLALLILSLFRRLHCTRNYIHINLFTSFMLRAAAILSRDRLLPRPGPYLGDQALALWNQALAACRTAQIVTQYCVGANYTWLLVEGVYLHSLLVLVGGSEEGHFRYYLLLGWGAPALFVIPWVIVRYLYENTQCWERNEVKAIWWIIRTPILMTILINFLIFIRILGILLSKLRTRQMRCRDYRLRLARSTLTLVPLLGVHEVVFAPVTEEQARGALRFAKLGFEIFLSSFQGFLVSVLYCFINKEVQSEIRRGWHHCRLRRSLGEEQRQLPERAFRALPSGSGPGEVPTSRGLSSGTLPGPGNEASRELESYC
# Experimental: as §1
# GCGR [4] = target: T3, GCGR (Homo sapiens, UniProt P47871); test: cAMP method (HTRF cAMP detection kit), HEK293/pGM-CREB-L-Luc/GCG pool; assay type: cell-based; conditions: read-out: EC50 (pM) for each receptor GCGR
# T3 construct: expressed in transfected cells
# Experimental: as §1
# GIPR [5] = target: T2, GIPR; test: CreLuc method (CRE-luciferase reporter), HEK293/pGM-CREB-L-Luc/GIPR pool; assay type: cell-based; conditions: 6 h incubation, read-out: EC50 (pM) for each receptor GIPR
# Method in brief: as §2
# GCGR [6] = target: T3, GCGR; test: CreLuc method (CRE-luciferase reporter), 293HEK/pGM-CREB-L-Luc/GCGR pool; assay type: cell-based; conditions: 6 h incubation, read-out: EC50 (pM) for each receptor GCGR
# Method in brief: as §2
# in vivo = test: in vivo; set-up: species or system male SD rats; conditions: rat
# Experimental: The pharmacokinetic behavior of target peptide derivatives (or polypeptide derivatives) prepared in Example 1 and Example 2, i.e., TG1-TG94 in rodents was tested. The specific steps are as follows:
# The target peptide derivatives (TG1-TG94) to be tested were administered to male SD rats via subcutaneous injection (SC, 3 mg/kg; drug vehicle: PBS, concentration: 1.5 mg/mL; administration volume: 2 mL) and intravenous injection (IV, 1 mg/kg; drug vehicle: PBS, concentration: 0.5 mg/mL; administration volume: 2 mL) as a single dose, respectively. Whole blood samples were collected from the jugular vein or other appropriate vein at the following time points after administration: for SC, 15 min, 30 min, 1 h, 2 h, 4 h, 6 h, 8 h, 24 h, 48 h, 72 h, 96 h, 120 h, and 168 h; for IV, 5 min, 15 min, 30 min, 1 h, 2 h, 4 h, 8 h, 24 h, 48 h, 72 h, 96 h, 120 h, and 168 h. 0.2 mL of blood was collected and transferred into a labeled EDTA-K2 anticoagulant tube. The tube was gently inverted to ensure thorough mixing of the anticoagulant (EDTA-K2) with the blood and immediately placed on wet ice. Plasma separation was performed as soon as possible by centrifugation under the following conditions: 4°C, 6800xg, for 6 min. The plasma samples were stored in a refrigerator at no higher than -20°C and used for analysis when needed.
# Under the condition of yellow light in an ice-water bath, except for blank samples, 300 µL of precipitant containing an internal standard was added to a 96-well plate containing 20 µL of standard curve sample, quality control sample, or unknown sample; 300 µL of acetonitrile was added to the blank sample. The mixture was vortexed, mixed well, and then centrifuged. 150 µL of the supernatant after centrifugation was transferred to a new 96-well plate, and 150 µL of ultrapure water was added and mixed well. The above samples were subjected to quantitative analysis using LC-MS analysis with XB-C18 (2.1 * 100 mm, 3 µm) chromatography for gradient elution. The mobile phases used were: mobile phase A = 0.1% formic acid-water; mobile phase B = acetonitrile. Phoenix WinNonlin software was used to calculate the pharmacokinetic parameters. […] Table 5A: Pharmacokinetic parameters of target peptide derivatives
# T1 sequence (P43220 24-463, species assumed): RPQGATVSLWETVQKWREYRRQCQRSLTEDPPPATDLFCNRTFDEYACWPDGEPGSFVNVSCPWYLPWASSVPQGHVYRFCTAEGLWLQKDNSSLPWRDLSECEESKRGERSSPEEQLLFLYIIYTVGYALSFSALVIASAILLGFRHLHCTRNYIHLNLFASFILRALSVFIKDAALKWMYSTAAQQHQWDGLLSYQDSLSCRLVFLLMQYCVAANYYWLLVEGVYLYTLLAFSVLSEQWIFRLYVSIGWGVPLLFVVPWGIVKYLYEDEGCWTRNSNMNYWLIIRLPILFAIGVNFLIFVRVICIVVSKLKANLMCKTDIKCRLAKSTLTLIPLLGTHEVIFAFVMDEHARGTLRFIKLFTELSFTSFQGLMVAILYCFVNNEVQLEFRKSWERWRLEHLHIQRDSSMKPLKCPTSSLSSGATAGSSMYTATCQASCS
# T3 sequence (P47871 26-477, species assumed): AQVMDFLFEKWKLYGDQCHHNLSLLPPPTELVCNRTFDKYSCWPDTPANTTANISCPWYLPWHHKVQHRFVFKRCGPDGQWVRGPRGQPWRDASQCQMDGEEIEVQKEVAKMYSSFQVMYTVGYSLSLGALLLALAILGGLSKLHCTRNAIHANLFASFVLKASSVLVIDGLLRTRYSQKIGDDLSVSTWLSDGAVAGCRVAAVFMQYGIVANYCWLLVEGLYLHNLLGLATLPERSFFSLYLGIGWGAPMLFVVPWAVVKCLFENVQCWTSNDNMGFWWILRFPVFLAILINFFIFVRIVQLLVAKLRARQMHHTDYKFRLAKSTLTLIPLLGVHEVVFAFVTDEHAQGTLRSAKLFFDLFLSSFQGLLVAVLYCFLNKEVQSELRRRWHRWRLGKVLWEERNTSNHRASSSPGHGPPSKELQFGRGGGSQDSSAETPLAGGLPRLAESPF
SMILES,EC50 (GLP-1R [1]) [pM],EC50 (GLP-1R [2]) [pM],EC50 (GIPR [3]) [pM],EC50 (GCGR [4]) [pM],EC50 (GIPR [5]) [pM],EC50 (GCGR [6]) [pM],other results
CC[C@H](C)[C@@H]1NC(=O)[C@H](Cc2ccccc2)NC(=O)[C@H](C)NC(=O)C(C)(C)NC(=O)[C@H](CCC(N)=O)NC(=O)[C@H](C)NC(=O)[C@@H](NC(=O)[C@H](CCCCN)NC(=O)[C@H](CC(=O)O)NC(=O)[C@H](CC(C)C)NC(=O)[C@H](CC(C)C)NC(=O)[C@@H](NC(=O)[C@H](CO)NC(=O)[C@H](Cc2ccc(O)cc2)NC(=O)[C@H](CC(=O)O)NC(=O)[C@H](CO)NC(=O)[C@@H](NC(=O)[C@H](Cc2ccccc2)NC(=O)[C@@H](NC(=O)CNC(=O)[C@H](CCC(N)=O)NC(=O)C(C)(C)NC(=O)[C@@H](N)Cc2ccc(O)cc2)[C@@H](C)O)[C@@H](C)O)[C@@H](C)CC)CSCC(=O)NCCN(C(=O)CCC(=O)NCCOCCOCC(=O)NCCOCCOCC(=O)NCCCC[C@H](NC(=O)CCCCCCCCCCCCCCCCCCC(=O)O)C(=O)O)CCNC(=O)CSC[C@@H](C(=O)N[C@@H](Cc2ccc(O)cc2)C(=O)N[C@@H](CC(C)C)C(=O)N[C@@H](CC(C)C)C(=O)N[C@@H](CCC(=O)O)C(=O)NCC(=O)NCC(=O)N2CCC[C@H]2C(=O)N[C@@H](CO)C(=O)N[C@@H](CO)C(=O)NCC(=O)N[C@@H](C)C(=O)N2CCC[C@H]2C(=O)N2CCC[C@H]2C(=O)N2CCC[C@H]2C(=O)N[C@@H](CO)C(N)=O)NC1=O [TG12],5.8,205,12.1,40.3,66.6,325,–
CC[C@H](C)[C@@H]1NC(=O)[C@H](Cc2ccccc2)NC(=O)[C@@H](NC(=O)C(C)(C)NC(=O)[C@H](CCC(N)=O)NC(=O)[C@H](C)NC(=O)[C@H](CCCCNC(C)=O)NC(=O)[C@H](CCCCN)NC(=O)[C@H](CC(=O)O)NC(=O)[C@H](CCC(C)C)NC(=O)[C@](C)(CC(C)C)NC(=O)[C@@H](NC(=O)[C@H](CO)NC(=O)[C@H](Cc2ccc(O)cc2)NC(=O)[C@H](CC(=O)O)NC(=O)[C@H](CO)NC(=O)[C@@H](NC(=O)[C@H](Cc2ccccc2)NC(=O)[C@@H](NC(=O)CNC(=O)[C@H](CCC(N)=O)NC(=O)C(C)(C)NC(=O)[C@@H](N)Cc2ccc(O)cc2)[C@@H](C)O)[C@@H](C)O)[C@@H](C)CC)CSCC(=O)NCCN(C(=O)CCC(=O)NCCOCCOCC(=O)NCCOCCOCC(=O)NCCCC[C@H](NC(=O)CCCCCCCCCCCCCCCCCCC(=O)O)C(=O)O)CCNC(=O)CSC[C@@H](C(=O)NCC(=O)NCC(=O)N2CCC[C@H]2C(=O)N[C@@H](CO)C(=O)N[C@@H](CO)C(=O)NCC(=O)N[C@@H](C)C(=O)N2CCC[C@H]2C(=O)N2CCC[C@H]2C(=O)N2CCC[C@H]2C(=O)N[C@@H](CO)C(N)=O)NC(=O)[C@H](CC(C)C)NC(=O)[C@H](CC(C)C)NC(=O)[C@H](Cc2ccc(O)cc2)NC(=O)[C@H](CCC(=O)O)NC1=O [TG25],2.2,54,–,65.1,24.4,311,–
CC[C@H](C)[C@@H]1NC(=O)[C@H](Cc2ccccc2)NC(=O)[C@@H](NC(=O)C(C)(C)NC(=O)[C@H](CCC(N)=O)NC(=O)[C@H](C)NC(=O)[C@H](CCCCNC(C)=O)NC(=O)[C@H](CCCCN)NC(=O)[C@H](CC(=O)O)NC(=O)[C@H](CC(C)C)NC(=O)[C@](C)(CC(C)C)NC(=O)[C@@H](NC(=O)[C@H](CO)NC(=O)[C@H](Cc2ccc(O)cc2)NC(=O)[C@H](CC(=O)O)NC(=O)[C@H](CO)NC(=O)[C@@H](NC(=O)[C@H](Cc2ccccc2F)NC(=O)[C@@H](NC(=O)CNC(=O)[C@H](CCC(N)=O)NC(=O)C(C)(C)NC(=O)[C@@H](N)Cc2ccc(O)cc2)[C@@H](C)O)[C@@H](C)O)[C@@H](C)CC)CSCC(=O)NCCN(C(=O)CCC(=O)NCCOCCOCC(=O)NCCOCCOCC(=O)NCCCC[C@H](NC(=O)CCCCCCCCCCCCCCCCCCC(=O)O)C(=O)O)CCNC(=O)CSC[C@@H](C(=O)NCC(=O)NCC(=O)N2CCC[C@H]2C(=O)N[C@@H](CO)C(=O)N[C@@H](CO)C(=O)NCC(=O)N[C@@H](C)C(=O)N2CCC[C@H]2C(=O)N2CCC[C@H]2C(=O)N2CCC[C@H]2C(=O)N[C@@H](CO)C(N)=O)NC(=O)[C@H](CC(C)C)NC(=O)[C@H](CC(C)C)NC(=O)[C@H](Cc2ccc(O)cc2)NC(=O)[C@H](CCC(=O)O)NC1=O [TG40],–,33.9,3.1,2.1,12.5,92.9,"AUC(0-inf) (in vivo; male, SD, iv, 1 mg/kg): 165 µg·h/mL; AUC(0-t) (in vivo; male, SD, iv, 1 mg/kg): 164 µg·h/mL; MRT (in vivo; male, SD, iv, 1 mg/kg): 22.1 h; Vd (in vivo; male, SD, iv, 1 mg/kg): 0.134 L/kg; clearance (in vivo; male, SD, iv, 1 mg/kg): 0.101 mL/min/kg; half-life (in vivo; male, SD, iv, 1 mg/kg): 15 h; bioavailability (in vivo; male, SD, sc): 50%; AUC(0-inf) (in vivo; male, SD, sc, 3 mg/kg): 248 µg·h/mL; AUC(0-t) (in vivo; male, SD, sc, 3 mg/kg): 247 µg·h/mL; CL/F (in vivo; male, SD, sc, 3 mg/kg): 0.205 mL/min/kg; Cmax (in vivo; male, SD, sc, 3 mg/kg): 4.77 µg/mL; MRT (in vivo; male, SD, sc, 3 mg/kg): 36.9 h; Tmax (in vivo; male, SD, sc, 3 mg/kg): 24 h; half-life (in vivo; male, SD, sc, 3 mg/kg): 13.1 h; AUC0-t /AUC0-inf (in vivo; iv, 1 mg/kg): 0.997; Kel (in vivo; iv, 1 mg/kg): 0.0462 h⁻¹; AUC0-t /AUC0-inf (in vivo; sc, 3 mg/kg): 0.996; Vz/F (in vivo; sc, 3 mg/kg): 0.232 L/kg"
CC[C@H](C)[C@@H]1NC(=O)[C@H](Cc2ccccc2)NC(=O)[C@@H](NC(=O)C(C)(C)NC(=O)[C@H](CCC(N)=O)NC(=O)[C@H](C)NC(=O)[C@H](CCCCNC(C)=O)NC(=O)[C@H](CCCCN)NC(=O)[C@H](CC(=O)O)NC(=O)[C@H](CC(C)C)NC(=O)[C@](C)(CC(C)C)NC(=O)[C@@H](NC(=O)[C@H](CO)NC(=O)[C@H](Cc2ccc(O)cc2)NC(=O)[C@H](CC(=O)O)NC(=O)[C@H](CO)NC(=O)[C@@H](NC(=O)[C@H](Cc2ccccc2)NC(=O)[C@@H](NC(=O)CNC(=O)[C@H](CCC(N)=O)NC(=O)C(C)(C)NC(=O)[C@@H](N)Cc2ccc(O)cc2)[C@@H](C)O)[C@@H](C)O)[C@@H](C)CC)CSCC(=O)NCCN(C(=O)CCC(=O)NCCOCCOCC(=O)NCCOCCOCC(=O)NCCCC[C@H](NC(=O)CCCCCCCCCCCCCCCCCCC(=O)O)C(=O)O)CCNC(=O)CSC[C@@H](C(=O)NCC(=O)NCC(=O)N2CCC[C@H]2C(=O)N[C@@H](CO)C(=O)N[C@@H](CO)C(=O)NCC(=O)N[C@@H](C)C(=O)N2CCC[C@H]2C(=O)N2CCC[C@H]2C(=O)N2CCC[C@H]2C(=O)N[C@@H](CO)C(N)=O)NC(=O)[C@H](CC(C)C)NC(=O)[C@H](CC(C)C)NC(=O)[C@H](Cc2c[nH]c3ccccc23)NC(=O)[C@H](CCC(=O)O)NC1=O [TG28],2.2,60.2,–,83.7,30,482,–
